Assay results reported in patent US7989482B2, “Indoline anti-cancer agents” (Joyant Pharmaceuticals, Inc., priority 2008, dated 2011).
Where two headings read alike, the source gives them in different places. Blank lines part the entries; values can stand above or below the compound they belong to.

Tests used:
HCC461 = experiment: Cell profiling, HCC461 tumor cell line; format: cell-based; details: Tumor cell line HCC461, origin Lung
Protocol: (§1) Cell viability assays were run using standard protocols known to those of skill in art. Cells were plated in 96 well plates at the density of 3,000-10,000 cells per well. Twenty four hours later, cells were treated with increasing concentration of test compounds (1 nM to 1 μM). After another 48 hour, cell survival was measured using CELL-TITER-GLO® reagent (Promega) following the protocol provided by the manufacture. The IC50 value was determined as the concentration of test compound that kills 50% of the cell population.
(§2) The compound of Example 46 was profiled in tumor cell lines derived from a variety of origins.

HCC1437 = experiment: Cell profiling, HCC1437 tumor cell line; format: cell-based; details: Tumor cell line HCC1437, origin Lung
Protocol: as §1, §2

HT29 = experiment: Cell profiling, HT29 tumor cell line; format: cell-based; details: Homo sapiens, HT-29; Tumor cell line HT29, origin Colon
Protocol: as §1, §2

NCI-H460 = experiment: Cell profiling, NCI-H460 tumor cell line; format: cell-based; details: Homo sapiens; Tumor cell line NCI-H460, origin Lung
Protocol: as §1, §2

COLO205 = experiment: Cell profiling, COLO205 tumor cell line; format: cell-based; details: Homo sapiens, COLO 205; Tumor cell line COLO205, origin Colon
Protocol: as §1, §2

BxPC3 = experiment: Cell profiling, BxPC3 tumor cell line; format: cell-based; details: Homo sapiens, BXPC-3; Tumor cell line BxPC3, origin Pancreas
Protocol: as §1, §2

A375 = experiment: Cell profiling, A375 tumor cell line; format: cell-based; details: Homo sapiens, A-375; Tumor cell line A375, origin Skin
Protocol: as §1, §2

BT474 = experiment: Cell profiling, BT474 tumor cell line; format: cell-based; details: Homo sapiens, BT-474; Tumor cell line BT474, origin Breast
Protocol: as §1, §2

HCT116 = experiment: Cell profiling, HCT116 tumor cell line; format: cell-based; details: Homo sapiens, HCT-116; Tumor cell line HCT116, origin Colon
Protocol: as §1, §2

U937 cells = experiment: Cell viability assay (CELL-TITER-GLO) in U937 cells; format: cell-based; details: Homo sapiens
Protocol: as §1
(§3) Cell viability data generated according to the protocol described in Example 97 was generated for representative compounds in A2058 and U937 cells.

OVCAR 3 = experiment: Cell profiling, OVCAR 3 tumor cell line; format: cell-based; details: Homo sapiens; Tumor cell line OVCAR 3, origin Ovarian
Protocol: as §1, §2

DU145 = experiment: Cell profiling, DU145 tumor cell line; format: cell-based; details: Homo sapiens, DU-145; Tumor cell line DU145, origin Prostate
Protocol: as §1, §2

A2058 cells = experiment: Cell viability assay (CELL-TITER-GLO) in A2058 cells; format: cell-based; details: Homo sapiens
Protocol: as §1, §3

LOVO = experiment: Cell profiling, LOVO tumor cell line; format: cell-based; details: Homo sapiens, origin Colon
Protocol: as §1, §2

[1] = tested on: HCT116 human colon carcinoma xenograft; experiment: HCT116 human colon carcinoma xenograft model in mice; format: in vivo; details: 20 mg/kg per dose intravenously, days 9, 11, 14, 16, 18 and 21 post tumor cell injection
Protocol: Compound of Example 73 was administered at 20 mg/kg per dose. Injections were given at days 9, 11, 14, 16, 18 and 21 post tumor cell injection.
The compound of Example 73 was tested in HCT116 human colon carcinoma xenograft and Miapaca pancreatic cancer xenograft tumor models in 5- to 6-week-old Harlan Athymic Nude-Foxnlnu mice.
Preparation of Tumor Cells • 1. Tumor cells were cultured in complete RPMI medium and excluded any contamination • 2. When cells are 70-80% confluent, medium was removed and cells were washed with serum free media, trypsinized, harvested and washed with serum free media for three times by centrifuge. After final washing, cells were counted and mixed with matrigel at 1:1 ration in volume. Cells were suspended in a volume that 200 μl contains required number of cells per injection.
Preparation of the Injection • 1. Clean and sterilize the inoculation area of the mice with iodine solutions and ethanol. • 2. Take cells with 1-cc syringe. • 3. Inject tumor cells (1×10^7) subcutaneously (s.c.) into the lower flank of the mice. • 4. When tumors reached 200-300 mm^3 in size, mice were randomized into treatment groups of five mice per group. • 5. Mice were weighed and tumors measured using vernier calipers two times per week. Tumor volume in mm3 is calculated by the formula: Volume (mm^3)=(length×width^2)/2. […]

[2] = U-937, 48 h, U937 cells, 48 hour treatment, cell viability, read-out: IC50 (μM) U937
[3] = A2058, 48 h, A2058 cells, 48 hour treatment, cell viability, read-out: IC50 (μM) A2058

SMILES: COC(=O)c1coc(-c2nc3oc2C24c5ccccc5N[C@H]2Oc2ccc(cc24)C[C@H](NC(=O)[C@@H](O)C(C)C)C(=O)N[C@H]3C(C)C)n1 (stereo partly drawn) [Example 46]
- IC50 (HCC461): 344 nM
- IC50 (HCC1437): 63 nM
- IC50 (HT29): 90 nM
- IC50 (NCI-H460): 245 nM
- IC50 (COLO205): 147 nM
- IC50 (BxPC3): 23 nM
- IC50 (A375): 99 nM
- IC50 (BT474): 6 nM
- IC50 (HCT116): 731 nM
- IC50 (U937 cells; [2]): 0.013 µM
- IC50 (U937 cells; U-937, Tumor cell line U937, origin Blood, read-out: IC50): 0.013 µM
- IC50 (OVCAR 3): 32 nM
- IC50 (DU145): 67 nM
- IC50 (A2058 cells; [3]): 0.044 µM
- IC50 (A2058 cells; A2058, Tumor cell line A2058, origin Skin, read-out: IC50): 0.044 µM
- IC50 (LOVO): 148 nM

SMILES: COC(=O)c1nc(-c2nc3oc2C24c5ccccc5N[C@H]2Oc2ccc(cc24)C[C@H](NC(=O)[C@@H](O)CC(C)C)C(=O)N[C@H]3C(C)C)oc1C (stereo partly drawn) [Example 70]
- IC50 (U937 cells; [2]): 0.065 µM
- IC50 (A2058 cells; [3]): 0.08 µM

SMILES: COc1ccc(-c2cnc(-c3nc4oc3C35c6ccccc6N[C@H]3Oc3ccc(cc35)CC(NC(=O)[C@@H](O)C(C)C)C(=O)N[C@H]4C(C)C)o2)cc1 (stereo partly drawn) [Example 71]
- IC50 (U937 cells; [2]): > 1 µM
- IC50 (A2058 cells; [3]): 0.639 µM

SMILES: CC(C)[C@H](O)C(=O)NC1Cc2ccc3c(c2)C2(C4=C(c5ncc(-c6ccccc6)o5)N=C(O4)[C@H](C(C)C)NC1=O)c1ccccc1N[C@H]2O3 (stereo partly drawn) [Example 72]
- IC50 (U937 cells; [2]): > 1 µM
- IC50 (A2058 cells; [3]): > 1 µM

SMILES: CC(C)[C@H](O)C(=O)N[C@H]1Cc2ccc3c(c2)C2(C4=C(c5nc(CO)co5)N=C(O4)[C@H](C(C)C)NC1=O)c1ccccc1N[C@H]2O3 (stereo partly drawn) [Example 73]
- IC50 (U937 cells; [2]): 0.037 µM
- IC50 (A2058 cells; [3]): 0.093 µM
- maximum weight loss [1]: 7.9%
- tumor size for treated animals, % of control ([1]; day 25): 34.5 % of control

- IC50 (U937 cells; U-937, U937 cells, 48 hour treatment, cell viability, read-out: IC50 (μM) U937): 0.11 µM
SMILES: CCC(O)(CC)C(=O)N[C@H]1Cc2ccc3c(c2)C2(C4=C(c5nc(CO)co5)N=C(O4)[C@H](C(C)C)NC1=O)c1ccccc1N[C@H]2O3 (stereo partly drawn) [Example 74]
- IC50 (A2058 cells; A2058 cells, 48 hour treatment, cell viability, read-out: IC50 (μM) A2058): 0.292 µM

SMILES: CCC(O)c1coc(-c2nc3oc2C24c5ccccc5N[C@H]2Oc2ccc(cc24)C[C@H](NC(=O)[C@@H](O)C(C)C)C(=O)N[C@H]3C(C)C)n1 (stereo partly drawn) [Example 75]
- IC50 (U937 cells; [2]): 0.229 µM
- IC50 (A2058 cells; [3]): 0.226 µM

SMILES: COCc1coc(-c2nc3oc2C24c5ccccc5N[C@H]2Oc2ccc(cc24)C[C@H](NC(=O)[C@@H](O)C(C)C)C(=O)N[C@H]3C(C)C)n1 (stereo partly drawn) [Example 76]
- IC50 (U937 cells; [2]): 0.127 µM
- IC50 (A2058 cells; [3]): 0.114 µM

SMILES: CCCCCCc1oc(-c2nc3oc2C24c5ccccc5N[C@H]2Oc2ccc(cc24)C[C@H](NC(=O)[C@@H](O)C(C)C)C(=O)N[C@H]3C(C)C)nc1C(=O)OC (stereo partly drawn) [Example 77]
- IC50 (U937 cells; [2]): 0.018 µM
- IC50 (A2058 cells; [3]): 0.08 µM

SMILES: CC(C)[C@H](O)C(=O)N[C@H]1Cc2ccc3c(c2)C2(C4=C(c5ncco5)N=C(O4)[C@H](C(C)C)NC1=O)c1ccccc1N[C@H]2O3 (stereo partly drawn) [Example 78]
- IC50 (U937 cells; [2]): 0.052 µM
- IC50 (A2058 cells; [3]): 0.154 µM

SMILES: Cc1coc(-c2nc3oc2C24c5ccccc5N[C@H]2Oc2ccc(cc24)C[C@H](NC(=O)[C@@H](O)C(C)C)C(=O)N[C@H]3C(C)C)n1 (stereo partly drawn) [Example 79]
- IC50 (U937 cells; [2]): 0.071 µM
- IC50 (A2058 cells; [3]): 0.174 µM

SMILES: CCOC(=O)c1coc(-c2nc3oc2C24c5ccccc5N[C@H]2Oc2ccc(cc24)C[C@H](NC(=O)[C@@H](O)C(C)C)C(=O)N[C@H]3C(C)C)n1 (stereo partly drawn) [Example 80]
- IC50 (U937 cells; [2]): 0.0013 µM
- IC50 (A2058 cells; [3]): 0.021 µM

SMILES: CC(C)OC(=O)c1coc(-c2nc3oc2C24c5ccccc5N[C@H]2Oc2ccc(cc24)C[C@H](NC(=O)[C@@H](O)C(C)C)C(=O)N[C@H]3C(C)C)n1 (stereo partly drawn) [Example 81]
- IC50 (U937 cells; [2]): 0.0014 µM
- IC50 (A2058 cells; [3]): 0.006 µM
